Consider 23 compounds from PubChem BioAssay (NCI).

Test systems include SF-268 CNS; OVCAR-4 ovarian; DU-145 prostate; CAKI-1 renal; ACHN renal; UACC-62 melanoma; HT29 colon.
Holding throughout (assay): inhibition of tumour cell growth, NCI panel, 48 h

Molecules are shown by their SMILES.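 These data come from cells grown in 96-well plates and exposed to compound for 48 hours at five concentrations. At the GI50, growth is halved. Definition used: TGI = concentration required for complete inhibition of growth.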 *1 amine or outer side, *2 acyl side, *3 side chain or, on linkers, in order; H or OH if unused. Where a SMILES comes first, the peptide text is derived from it. [ ]: non-standard residue; d: D form. X32 = C[C@H](N[*:1])C(=O)C(C)(C)C(=O)[*:2]; Hmpa(2S,3S) = CC[C@H](C)[C@H](O)C(=O)O; NMeY = CN[C@@H](Cc1ccc(O)cc1)C(=O)O; NMeL = CN[C@@H](CC(C)C)C(=O)O; NMeV = CN[C@H](C(=O)O)C(C)C; βAla = NCCC(=O)O Where only a bound is given, the exact number is not on record here.

Consider `Cc1ccc(NC(=O)c2cc(S(=O)(=O)Nc3nc4ncccc4[nH]3)c(SSc3cc(Cl)c(C(=O)Nc4ccc(C)cc4)cc3S(=O)(=O)Nc3nc4ncccc4[nH]3)cc2Cl)cc1`, for which the TGI with SF-268 CNS, in the assay on OVCAR-4 ovarian, in the assay with DU-145 prostate, with CAKI-1 renal, in the assay on ACHN renal and with UACC-62 melanoma was more than 100 µM each time. The compound also registered a TGI with HT29 colon of more than 100 µM.
Turning to `COc1cc(/C=C/C(=O)C2(C(=O)/C=C/c3cc(OC)c(OC)c(OC)c3)CCCCC2)cc(OC)c1OC`, the TGI is more than 100 µM with SF-268 CNS; more than 100 µM in the assay on OVCAR-4 ovarian; more than 100 µM in the assay with DU-145 prostate; more than 100 µM in the assay with CAKI-1 renal; more than 100 µM in the assay on ACHN renal; 53.8 µM in the assay with UACC-62 melanoma. The TGI in the assay with HT29 colon was more than 100 µM.
As to `CC(=O)OCC1OC(n2c(-c3ccc(C)cc3)cc(-c3ccccc3)c(C#N)c2=S)C(OC(C)=O)C(OC(C)=O)C1OC(C)=O` (stereo unspecified), the TGI in the assay on SF-268 CNS, in the assay with OVCAR-4 ovarian, in the assay with DU-145 prostate, in the assay on CAKI-1 renal, in the assay with ACHN renal and in the assay with UACC-62 melanoma was more than 100 µM each time. In the assay with HT29 colon, this compound gave a TGI of more than 100 µM.
As for `COc1ccc(/C=C2\CCC(C)C3=C2N=c2s/c(=C/c4cccc(Br)c4)c(=O)n2C3c2ccc(OC)c(OC)c2)cc1OC` (stereo unspecified), the TGI in the assay with SF-268 CNS, with OVCAR-4 ovarian, in the assay on DU-145 prostate, in the assay on CAKI-1 renal, in the assay with ACHN renal and in the assay on UACC-62 melanoma was more than 100 µM throughout. The TGI with HT29 colon is more than 100 µM.
On to `N#Cc1c(N)nc(Sc2ccccc2N)c(C#N)c1-c1ccc(Cl)cc1`, for which the TGI in the assay on SF-268 CNS was 23.8 µM; with OVCAR-4 ovarian, more than 100 µM; in the assay with DU-145 prostate, more than 58.2 µM; with CAKI-1 renal it was 45 µM; in the assay with ACHN renal, 39.5 µM; in the assay on UACC-62 melanoma, 13 µM. In the assay with HT29 colon, the TGI was more than 100 µM.
With `O=C(NCCCCCCNC(=O)c1cc(-c2ccccc2)nc2ccccc12)c1cc(-c2ccccc2)nc2ccccc12`, the TGI in the assay on SF-268 CNS, in the assay on OVCAR-4 ovarian, with DU-145 prostate, in the assay with CAKI-1 renal, in the assay with ACHN renal and in the assay on UACC-62 melanoma was more than 100 µM throughout. This compound yielded a TGI with HT29 colon of more than 100 µM.
With `CCCCCCCCCCCCC(O)[C@H]1CC[C@H](C(O)CCCCCC(=O)CCCCC2CC(C(C)=O)C(=O)O2)O1` (stereo partly specified), the GI50 in the assay with SF-268 CNS was 3.43 µM; in the assay with ACHN renal, 1.68 µM; with UACC-62 melanoma, 3.84 µM; with HT29 colon it was 2.96 µM. Besides, the TGI was 53.4 µM with SF-268 CNS; 39.4 µM in the assay on OVCAR-4 ovarian; more than 100 µM with DU-145 prostate; 50.3 µM in the assay on CAKI-1 renal; 70.4 µM in the assay on ACHN renal; 21.6 µM in the assay with UACC-62 melanoma. In the assay on HT29 colon, this compound registered a TGI of more than 53.5 µM.
On to `CC(=O)Nc1ccc(C2SCc3nc4ccccc4n32)cc1` (stereo unspecified), for which the TGI in the assay with SF-268 CNS, in the assay on OVCAR-4 ovarian, with DU-145 prostate, in the assay on CAKI-1 renal, in the assay on ACHN renal and with UACC-62 melanoma was more than 100 µM in each case. For the same compound, in the assay with HT29 colon, the TGI was more than 100 µM.
On to `CN(C)c1nc(Cl)c2c(-c3ccccc3)c(-c3ccccc3)oc2n1`, for which the TGI with SF-268 CNS, with OVCAR-4 ovarian, in the assay on DU-145 prostate, with CAKI-1 renal, in the assay with ACHN renal and in the assay with UACC-62 melanoma was more than 100 µM each time. Further, the TGI with HT29 colon is more than 100 µM.
`Cc1cc(=O)oc2c(CNC(Cc3ccccc3)C(=O)O)c(O)ccc12` (stereo unspecified): the TGI in the assay with SF-268 CNS, in the assay with OVCAR-4 ovarian, in the assay with DU-145 prostate, with CAKI-1 renal, with ACHN renal and with UACC-62 melanoma was more than 100 µM in each case. The same compound gave a TGI in the assay with HT29 colon of more than 100 µM.
With `O=[N+]([O-])c1ccc(N/N=C/c2ccc(OCCCCCCCCCCCO)cc2)c([N+](=O)[O-])c1`, the TGI with SF-268 CNS is 7.62 µM; in the assay with OVCAR-4 ovarian, 13.7 µM; with DU-145 prostate it was more than 95.9 µM; in the assay on CAKI-1 renal, 8.94 µM; in the assay on ACHN renal it was more than 71.7 µM; in the assay on UACC-62 melanoma, 7.74 µM. The compound also showed a TGI with HT29 colon of more than 100 µM.
For `CC[C@H](C)[C@@H]1OC(=O)CCNC(=O)[C@@H](C)NC(=O)C(C)(C)C(=O)[C@H](C)NC(=O)[C@H](Cc2ccc(OC)cc2)N(C)C(=O)[C@H](C(C)C)N(C)C(=O)CNC(=O)[C@H](CC(C)C)N(C)C(=O)CNC1=O` (cyclo(G[NMeL]G[NMeV][NMeY](Me)[X32][dA][βAla][Hmpa(2S,3S)])), the TGI was 6.54 µM in the assay with SF-268 CNS; 3.51 µM in the assay on OVCAR-4 ovarian; more than 39.2 µM with DU-145 prostate; 6.49 µM in the assay on CAKI-1 renal; more than 38 µM with ACHN renal; more than 50 µM with UACC-62 melanoma. Also, the TGI in the assay with HT29 colon is 10.2 µM.
On to `N[C@H]1CCCC[C@@H]1N1C(=O)c2ccccc2C1(O)c1ccc(Cl)cc1` (stereo partly specified), for which the TGI was determined as 27.5 µM with SF-268 CNS; 24.6 µM with OVCAR-4 ovarian; 25.9 µM with DU-145 prostate; 20.7 µM with CAKI-1 renal; 27 µM with ACHN renal; 25.9 µM with UACC-62 melanoma. In the assay on HT29 colon, this compound returned a TGI of 15.6 µM.
With `COC(=O)c1ccccc1C1CN=NC12Cc1cc(C)ccc1C2=O` (stereo unspecified), the TGI in the assay with SF-268 CNS, in the assay with OVCAR-4 ovarian, in the assay on DU-145 prostate, in the assay on CAKI-1 renal, with ACHN renal and in the assay with UACC-62 melanoma was more than 100 µM throughout. In the assay with HT29 colon, this compound displayed a TGI of more than 100 µM.
On to `CCOC(=O)c1ccc(N=c2sc3ccccc3nc2Nc2ccc(C(=O)OCC)cc2)cc1`, for which the TGI in the assay on SF-268 CNS, in the assay on OVCAR-4 ovarian, in the assay on DU-145 prostate, in the assay with CAKI-1 renal, in the assay with ACHN renal and with UACC-62 melanoma was more than 100 µM throughout. The compound further showed a TGI in the assay with HT29 colon of more than 100 µM.
Consider `CCOC(=O)c1c(N2CCOCC2)[nH]c(=O)c(C(c2ccco2)c2c(O)c(C(=O)OCC)c(N3CCOCC3)[nH]c2=O)c1O`, for which the TGI in the assay on SF-268 CNS, with OVCAR-4 ovarian, in the assay with DU-145 prostate, with CAKI-1 renal, in the assay with ACHN renal and in the assay on UACC-62 melanoma was more than 100 µM throughout. This compound displayed a TGI in the assay with HT29 colon of more than 100 µM.
Turning to `C(=C\c1ccco1)/c1cccc(/C=C/c2ccco2)n1`, the TGI in the assay on SF-268 CNS, in the assay on OVCAR-4 ovarian, with DU-145 prostate, in the assay with CAKI-1 renal, in the assay on ACHN renal and in the assay on UACC-62 melanoma was more than 50 µM throughout. For the same compound, the TGI in the assay with HT29 colon was more than 50 µM.
On to `COc1cc2c(cc1OCCCC(=O)Nc1ccc3ccc4cccc5ccc1c3c45)N=C[C@@H]1CCCN1C2=O`, for which the GI50 in the assay on SF-268 CNS is 0.27 µM; in the assay on OVCAR-4 ovarian it was less than 0.01 µM; in the assay on DU-145 prostate it was less than 0.01 µM; in the assay with CAKI-1 renal, 0.434 µM; in the assay on ACHN renal, 0.044 µM; with UACC-62 melanoma it was less than 0.01 µM. For the same compound, the TGI with SF-268 CNS was 0.864 µM; with OVCAR-4 ovarian, 10.1 µM; with DU-145 prostate, less than 0.01 µM; in the assay with CAKI-1 renal, 1.63 µM; in the assay with ACHN renal, more than 100 µM; in the assay on UACC-62 melanoma, 0.0263 µM. This compound also had a TGI with HT29 colon of more than 83.6 µM.
Regarding `O=C1C(Cl)=C(Nc2ccc(S(=O)(=O)Nc3ccccn3)cc2)C(=O)c2ccccc21`, the TGI with SF-268 CNS is 29.3 µM; in the assay with OVCAR-4 ovarian, more than 53.6 µM; in the assay on DU-145 prostate it was 25.9 µM; with CAKI-1 renal it was more than 52.1 µM; in the assay with ACHN renal, 31.2 µM; in the assay on UACC-62 melanoma, 11.8 µM. The TGI with HT29 colon stood at 22.3 µM.
`BrC(c1cccc2ccccc12)c1cccc2ccccc12`: the TGI in the assay on SF-268 CNS was found to be 26.6 µM; in the assay with OVCAR-4 ovarian, 36.1 µM; in the assay on DU-145 prostate, 26.4 µM; with CAKI-1 renal, 50.1 µM; with ACHN renal it was 52.3 µM; in the assay on UACC-62 melanoma it was 27.7 µM. For the same compound, the TGI in the assay with HT29 colon worked out at 35.8 µM.
Take `COc1ccc(C(=O)/C=C/c2cc(O)c(O)c(F)c2F)c(OC)c1`: the TGI with SF-268 CNS was more than 100 µM; in the assay with OVCAR-4 ovarian it was more than 100 µM; in the assay with DU-145 prostate, more than 100 µM; with CAKI-1 renal, more than 100 µM; in the assay with ACHN renal, more than 100 µM; in the assay on UACC-62 melanoma it was 42.8 µM. For the same compound, the TGI in the assay on HT29 colon is more than 100 µM.
For the compound `Cn1c2ccccc2c(=O)c2cccc(C(=O)NC(CCC(N)=O)C(=O)O)c21` (stereo unspecified), the TGI in the assay with SF-268 CNS, with OVCAR-4 ovarian, with DU-145 prostate, in the assay with CAKI-1 renal, in the assay with ACHN renal and in the assay with UACC-62 melanoma was more than 100 µM each time. The TGI in the assay on HT29 colon was more than 100 µM.
For the compound `Nc1onc2c1Cc1c(noc1N)-c1ccccc1-2`, the TGI with SF-268 CNS, with OVCAR-4 ovarian, in the assay on DU-145 prostate, with CAKI-1 renal, in the assay with ACHN renal and with UACC-62 melanoma was more than 100 µM throughout. Besides, the TGI in the assay with HT29 colon is more than 100 µM.
